Measurements published in ChEMBL document CHEMBL4346683 (Eur J Med Chem, 2019).
≈ marks a conversion by molar mass, not a printed value.

Assays:
Escherichia coli = assay: Antibacterial activity against Escherichia coli ATCC 25922 assessed as inhibition of bacterial growth incubated for 24 hrs by TTC double broth dilution method; type: functional; conditions: ATCC 25922, 24 h
Pseudomonas aeruginosa = assay: Antibacterial activity against Pseudomonas aeruginosa ATCC 27853 assessed as inhibition of bacterial growth incubated for 24 hrs by TTC double broth dilution method; type: functional; conditions: ATCC 27853, 24 h
Bacillus subtilis = assay: Antibacterial activity against Bacillus subtilis ATCC 530 assessed as inhibition of bacterial growth incubated for 24 hrs by TTC double broth dilution method; type: functional; conditions: ATCC 530, 24 h
Staphylococcus aureus = assay: Antibacterial activity against Staphylococcus aureus ATCC 25923 assessed as inhibition of bacterial growth incubated for 24 hrs by TTC double broth dilution method; type: functional; conditions: ATCC 25923, 24 h
[1] = biological target: T1, 3-oxoacyl-[acyl-carrier-protein] synthase 3 (Escherichia coli, UniProt C3TDZ2); assay: Inhibition of Escherichia coli FabH in presence of radiolabelled substrates and acetyl-coA by enzyme coupled FabD/FabH assay system
T1 sequence (C3TDZ2 whole entry): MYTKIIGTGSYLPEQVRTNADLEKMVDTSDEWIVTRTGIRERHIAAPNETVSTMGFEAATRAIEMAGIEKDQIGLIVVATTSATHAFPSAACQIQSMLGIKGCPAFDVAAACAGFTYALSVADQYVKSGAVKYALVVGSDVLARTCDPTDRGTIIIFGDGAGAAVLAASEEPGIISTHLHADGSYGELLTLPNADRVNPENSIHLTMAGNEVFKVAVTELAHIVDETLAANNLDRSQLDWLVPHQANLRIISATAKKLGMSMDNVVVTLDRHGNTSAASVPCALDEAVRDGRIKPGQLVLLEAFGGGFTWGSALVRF

[2] = Cytotoxicity against human 293T cells assessed as reduction in cell viability incubated for 24 hrs by MTT assay; type: cell-based; conditions: HEK-293T cells
[3] = Induction of hemolysis in human erythrocytes assessed as hemoglobin release incubated for 3 hrs by spectrophotometric analysis; type: cell-based; conditions: erythrocyte

Row | SMILES | MIC (Escherichia coli) [µg/mL] | MIC (Pseudomonas aeruginosa) [µg/mL] | MIC (Bacillus subtilis) [µg/mL] | MIC (Staphylococcus aureus) [µg/mL] | IC50 [1] [µM] | CC50 at 24 h [2] [µM] | LC30 [3] [µg/mL]
1 | Cc1cccc(C(=O)n2c(-c3cn(-c4ccccc4)nc3-c3ccc(F)cc3)nc3ccccc32)c1 | 62.5 (≈ 132 µM) | 31.2 (≈ 66.1 µM) | 31.2 (≈ 66.1 µM) | 62.5 (≈ 132 µM) | 34.1 | 148 | > 10000
2 | Cc1ccc(C(=O)n2c(-c3cn(-c4ccccc4)nc3-c3ccc(C(F)(F)F)cc3)nc3ccccc32)cc1 | 62.5 (≈ 120 µM) | > 62.5 | 3.9 (≈ 7.46 µM) | > 62.5 | 31.8 | 169 | > 10000
3 | O=C(c1ccncc1)n1c(-c2cn(-c3ccccc3)nc2-c2ccc(C(F)(F)F)cc2)nc2ccccc21 | > 62.5 | 62.5 (≈ 123 µM) | 7.8 (≈ 15.3 µM) | 62.5 (≈ 123 µM) | 32.7 | 135 | > 10000
4 | Cc1ccc(C(=O)n2c(-c3cn(-c4ccccc4)nc3-c3ccc(F)cc3)nc3ccccc32)cc1 | 62.5 (≈ 132 µM) | > 62.5 | 0.98 (≈ 2.07 µM) | > 62.5 | 30.3 | 178 | > 10000
5 | Cc1cccc(C(=O)n2c(-c3cn(-c4ccccc4)nc3-c3ccc(C(F)(F)F)cc3)nc3ccccc32)c1 | 62.5 (≈ 120 µM) | 31.2 (≈ 59.8 µM) | 31.2 (≈ 59.8 µM) | > 62.5 | 34.9 | 154 | > 10000
6 | Cc1ccc(-c2nn(-c3ccccc3)cc2-c2nc3ccccc3n2C(=O)c2cccc(C)c2)cc1 | 62.5 (≈ 133 µM) | 62.5 (≈ 133 µM) | 31.2 (≈ 66.7 µM) | > 62.5 | 33.2 | 195 | > 10000
7 | O=C(c1ccc(Cl)cc1)n1c(-c2cn(-c3ccccc3)nc2-c2ccc(C(F)(F)F)cc2)nc2ccccc21 | 62.5 (≈ 115 µM) | 31.2 (≈ 57.6 µM) | 62.5 (≈ 115 µM) | > 62.5 | 39.8 | 181 | > 10000
8 | O=C(c1ccc(Cl)cc1)n1c(-c2cn(-c3ccccc3)nc2-c2ccc(F)cc2)nc2ccccc21 | 62.5 (≈ 127 µM) | > 62.5 | 62.5 (≈ 127 µM) | > 62.5 | 36.1 | 179 | > 10000
9 | Cc1ccc(-c2nn(-c3ccccc3)cc2-c2nc3ccccc3n2C(=O)c2cncc(C)c2)cc1 | 62.5 (≈ 133 µM) | 62.5 (≈ 133 µM) | 7.8 (≈ 16.6 µM) | 62.5 (≈ 133 µM) | 9.56 | 155 | > 10000
10 | O=C(c1ccncc1)n1c(-c2cn(-c3ccccc3)nc2-c2ccc(F)cc2)nc2ccccc21 | > 62.5 | 62.5 (≈ 136 µM) | 31.2 (≈ 68 µM) | 62.5 (≈ 136 µM) | 33.9 | 151 | > 10000
11 | Cc1ccc(-c2nn(-c3ccccc3)cc2-c2nc3ccccc3n2C(=O)c2cccnc2)cc1 | 62.5 (≈ 137 µM) | 62.5 (≈ 137 µM) | 0.98 (≈ 2.15 µM) | 31.2 (≈ 68.6 µM) | 18.3 | 189 | > 10000
12 | Cc1cncc(C(=O)n2c(-c3cn(-c4ccccc4)nc3-c3ccc(F)cc3)nc3ccccc32)c1 | 62.5 (≈ 132 µM) | 62.5 (≈ 132 µM) | 15.6 (≈ 32.9 µM) | 62.5 (≈ 132 µM) | 22.1 | 119 | > 10000
13 | O=C(c1ccccc1)n1c(-c2cn(-c3ccccc3)nc2-c2ccc(C(F)(F)F)cc2)nc2ccccc21 | 62.5 (≈ 123 µM) | 62.5 (≈ 123 µM) | 15.6 (≈ 30.7 µM) | > 62.5 | 25.7 | 168 | > 10000
14 | Cc1ccc(-c2nn(-c3ccccc3)cc2-c2nc3ccccc3n2C(=O)c2ccncc2)cc1 | > 62.5 | 62.5 (≈ 137 µM) | 31.2 (≈ 68.6 µM) | 62.5 (≈ 137 µM) | 30.3 | 154 | > 10000
15 | Cc1ccc(-c2nn(-c3ccccc3)cc2-c2nc3ccccc3n2C(=O)c2ccccc2)cc1 | > 62.5 | 62.5 (≈ 138 µM) | 31.2 (≈ 68.8 µM) | > 62.5 | 28.2 | 204 | > 10000
16 | Cc1ccc(-c2nn(-c3ccccc3)cc2-c2nc3ccccc3n2C(=O)c2ccccc2C)cc1 | 62.5 (≈ 133 µM) | > 62.5 | 62.5 (≈ 133 µM) | > 62.5 | 35.4 | 176 | > 10000
17 | Cc1ccccc1C(=O)n1c(-c2cn(-c3ccccc3)nc2-c2ccc(F)cc2)nc2ccccc21 | > 62.5 | > 62.5 | 62.5 (≈ 132 µM) | > 62.5 | 37.2 | 189 | > 10000
18 | NC[C@H]1O[C@H](O[C@H]2[C@H](O)[C@@H](O[C@H]3O[C@H](CO)[C@@H](O)[C@H](N)[C@H]3O)[C@H](N)C[C@@H]2N)[C@H](N)[C@@H](O)[C@@H]1O [BEKANAMYCIN] | 1.95 (≈ 4.03 µM) | 3.9 (≈ 8.07 µM) | 0.98 (≈ 2.03 µM) | 0.98 (≈ 2.03 µM) |  |  | 
19 | Cc1ccccc1C(=O)n1c(-c2cn(-c3ccccc3)nc2-c2ccc(C(F)(F)F)cc2)nc2ccccc21 | > 62.5 | > 62.5 | 62.5 (≈ 120 µM) | > 62.5 | 36.5 | 179 | > 10000
20 | Cc1ccc(C(=O)n2c(-c3cn(-c4ccccc4)nc3-c3ccc(C(F)(F)F)cc3)nc3ccccc32)cn1 | 1.95 (≈ 3.72 µM) | 62.5 (≈ 119 µM) | 0.49 (≈ 0.936 µM) | 62.5 (≈ 119 µM) | 2.05 | 153 | > 10000
